# From PubChem BioAssay AID1918943 (Molecular Pharmacology Branch, DTP, NCI, 2023)
# pIC50: −log10 of the molar value. Where “and” joins values, the source holds several entries; their conditions need not be identical. Equal entries are not always repeated.
# Test system: 855422-203-R-J1-PDC complex spheroid viability
# Assay: Anticancer human tumor 855422-203-R-J1-PDC patient-derived bladder carcinoma cell line growth inhibition
# Conditions: for viability, T/C: stronger effect = lower value
# How it was run: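 Multicellular complex spheroids of tumor cells with human endothelial cells (HUVEC) and mesenchymal stem cells; the LSD1 inhibitor iadademstat was combined with standard-of-care or investigational agents. Top concentration at or near clinical Cmax, half-log dilutions; final DMSO ≤0.25%.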
# [1] = curve of first compound, second compound 0.1 µM
# [2] = curve of first compound, second compound 0.316 µM
# [3] = curve of first compound, second compound 1 µM
# [4] = curve of first compound, second compound 3.16 µM
# [5] = curve of first compound, second compound 10 µM
# [6] = second compound 0.1 µM, first compound 0.00316 µM
# [7] = second compound 0.1 µM, first compound 0.01 µM
# [8] = second compound 0.1 µM, first compound 0.0316 µM
# [9] = second compound 0.1 µM, first compound 0.1 µM
# [10] = second compound 0.316 µM, first compound 0.00316 µM
# [11] = second compound 0.316 µM, first compound 0.01 µM
# [12] = second compound 0.316 µM, first compound 0.0316 µM
# [13] = second compound 0.316 µM, first compound 0.1 µM
# [14] = second compound 1 µM, first compound 0.00316 µM
# [15] = second compound 1 µM, first compound 0.01 µM
# [16] = second compound 1 µM, first compound 0.0316 µM
# [17] = second compound 1 µM, first compound 0.1 µM
# [18] = second compound 3.16 µM, first compound 0.00316 µM
# [19] = second compound 3.16 µM, first compound 0.01 µM
# [20] = second compound 3.16 µM, first compound 0.0316 µM
# [21] = second compound 3.16 µM, first compound 0.1 µM
# [22] = second compound 10 µM, first compound 0.00316 µM
# [23] = second compound 10 µM, first compound 0.01 µM
# [24] = second compound 10 µM, first compound 0.0316 µM
# [25] = second compound 10 µM, first compound 0.1 µM
# [26] = second compound 0.1 µM, first compound 0.316 µM
# [27] = second compound 0.1 µM, first compound 1 µM
# [28] = second compound 0.316 µM, first compound 0.316 µM
# [29] = second compound 0.316 µM, first compound 1 µM
# [30] = second compound 1 µM, first compound 0.316 µM
# [31] = second compound 1 µM, first compound 1 µM
# [32] = second compound 3.16 µM, first compound 0.316 µM
# [33] = second compound 3.16 µM, first compound 1 µM
# [34] = second compound 10 µM, first compound 0.316 µM
# [35] = second compound 10 µM, first compound 1 µM
# 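Also: drug exposure lasted 7 days starting on day 3 after seeding.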
# 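For viability, T/C in this document: luminescence viability as percent of DMSO vehicle wells = 100%.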
smiles,measurement,setting,value
CC[C@@]1(O)C(=O)OCc2c1cc1n(c2=O)Cc2cc3c(CN(C)C)c(O)ccc3nc2-1 + NC1CCC(NC2CC2c2ccccc2)CC1,pIC50,[1],8.13
same,pIC50,[2],8.16
same,pIC50,[3],8.12
same,pIC50,[4],8.17
same,pIC50,[5],8.21
same,"viability, T/C","second compound 0.1 µM, first compound 0.000316 µM",89.9%
same,"viability, T/C","second compound 0.1 µM, first compound 0.001 µM",93.6%
same,"viability, T/C",[6],82.5%
same,"viability, T/C",[7],38.8%
same,"viability, T/C",[8],27.5%
same,"viability, T/C",[9],22.9%
same,"viability, T/C","second compound 0.316 µM, first compound 0.000316 µM",90.9%
same,"viability, T/C","second compound 0.316 µM, first compound 0.001 µM",83.9%
same,"viability, T/C",[10],77.7%
same,"viability, T/C",[11],36.8%
same,"viability, T/C",[12],24.9%
same,"viability, T/C",[13],21.2%
same,"viability, T/C","second compound 1 µM, first compound 0.000316 µM",89.1%
same,"viability, T/C","second compound 1 µM, first compound 0.001 µM",80%
same,"viability, T/C",[14],78.5%
same,"viability, T/C",[15],39.9%
same,"viability, T/C",[16],32.6%
same,"viability, T/C",[17],21.4%
same,"viability, T/C","second compound 3.16 µM, first compound 0.000316 µM",77.4%
same,"viability, T/C","second compound 3.16 µM, first compound 0.001 µM",83.5%
same,"viability, T/C",[18],74.5%
same,"viability, T/C",[19],37.1%
same,"viability, T/C",[20],25.5%
same,"viability, T/C",[21],21.1%
same,"viability, T/C","second compound 10 µM, first compound 0.000316 µM",79.3%
same,"viability, T/C","second compound 10 µM, first compound 0.001 µM",79.2%
same,"viability, T/C",[22],66%
same,"viability, T/C",[23],37.2%
same,"viability, T/C",[24],26.9%
same,"viability, T/C",[25],15.9%
O=C(C=Cn1cnc(-c2cc(C(F)(F)F)cc(C(F)(F)F)c2)n1)NNc1cnccn1 + NC1CC1c1ccc(-c2cccc(O)c2)cc1,pIC50,[1],7.56
same,pIC50,[2],7.60
same,pIC50,[3],7.62
same,pIC50,[4],7.67
same,pIC50,[5],7.63
same,"viability, T/C",[6],133%
same,"viability, T/C",[7],75.4%
same,"viability, T/C",[8],44.4%
same,"viability, T/C",[9],35.1%
same,"viability, T/C",[26],27.6%
same,"viability, T/C",[27],16.2%
same,"viability, T/C",[10],121%
same,"viability, T/C",[11],75%
same,"viability, T/C",[12],40.5%
same,"viability, T/C",[13],32.6%
same,"viability, T/C",[28],28.2%
same,"viability, T/C",[29],17.7%
same,"viability, T/C",[14],121%
same,"viability, T/C",[15],71.1%
same,"viability, T/C",[16],38.9%
same,"viability, T/C",[17],34.8%
same,"viability, T/C",[30],29.3%
same,"viability, T/C",[31],16.8%
same,"viability, T/C",[18],112%
same,"viability, T/C",[19],68.3%
same,"viability, T/C",[20],36.8%
same,"viability, T/C",[21],33.5%
same,"viability, T/C",[32],26.6%
same,"viability, T/C",[33],18.9%
same,"viability, T/C",[22],97.8%
same,"viability, T/C",[23],70.3%
same,"viability, T/C",[24],39.7%
same,"viability, T/C",[25],33.3%
same,"viability, T/C",[34],31%
same,"viability, T/C",[35],20.1%
CC1COCCN1c1cc(-c2ccnn2C)c2ccnc(-c3ccn[nH]3)c2n1 (stereo not given) + NC1CCC(NC2CC2c2ccccc2)CC1,pIC50,[1],6.74
same,pIC50,[2],6.79
same,pIC50,[3],6.75
same,pIC50,[4],7.00
same,pIC50,[5],7.06
same,"viability, T/C",[6],95.1%
same,"viability, T/C",[7],83.1%
same,"viability, T/C",[8],86.5%
same,"viability, T/C",[9],59.5%
same,"viability, T/C",[26],41.5%
same,"viability, T/C",[27],33%
same,"viability, T/C",[10],91.8%
same,"viability, T/C",[11],78.9%
same,"viability, T/C",[12],90.3%
same,"viability, T/C",[13],60%
same,"viability, T/C",[28],39.5%
same,"viability, T/C",[29],33%
same,"viability, T/C",[14],85%
same,"viability, T/C",[15],79.7%
same,"viability, T/C",[16],96.4%
same,"viability, T/C",[17],63.8%
same,"viability, T/C",[30],38.7%
same,"viability, T/C",[31],34%
same,"viability, T/C",[18],87.4%
same,"viability, T/C",[19],83.5%
same,"viability, T/C",[20],87.4%
same,"viability, T/C",[21],49.9%
same,"viability, T/C",[32],32.5%
same,"viability, T/C",[33],27.2%
same,"viability, T/C",[22],88%
same,"viability, T/C",[23],81.1%
same,"viability, T/C",[24],84%
same,"viability, T/C",[25],44.9%
same,"viability, T/C",[34],33.2%
same,"viability, T/C",[35],31.7%
CC[C@@]1(O)C(=O)OCc2c1cc1n(c2=O)Cc2cc3c(CN(C)C)c(O)ccc3nc2-1,"viability, T/C",compound 0.000316 µM,90.1% and 96.8%
same,"viability, T/C",compound 0.001 µM,95.2% and 97.2%
same,"viability, T/C",compound 0.00316 µM,89.8% and 94.5%
same,"viability, T/C",compound 0.01 µM,35.8% and 39.8%
same,"viability, T/C",compound 0.0316 µM,25.6% and 21.1%
same,"viability, T/C",compound 0.1 µM,14.6% and 14.9%
same,pIC50,curve of compound,8.13 and 8.09
NC1CCC(NC2CC2c2ccccc2)CC1 (stereo not given),"viability, T/C",compound 0.1 µM,89.9% [middle of 25 runs]
same,"viability, T/C",compound 0.316 µM,96.7% and 90.2%
same,"viability, T/C",compound 1 µM,86.6% [middle of 25 runs]
same,"viability, T/C",compound 3.16 µM,87.7% [middle of 25 runs]
same,"viability, T/C",compound 10 µM,78.7% [middle of 23 runs]
same,pIC50,"compound alone, run of 11/29/2021",< 5.00
Nc1ccn(C2OC(CO)C(O)C2(F)F)c(=O)n1 (stereo not given) + NC1CC1c1ccc(-c2cccc(O)c2)cc1,pIC50,[1],8.55
same,pIC50,[2],8.50
same,pIC50,[3],8.53
same,pIC50,[4],8.65
same,pIC50,[5],8.52
same,"viability, T/C","second compound 0.1 µM, first compound 0.000949 µM",84.7%
same,"viability, T/C","second compound 0.1 µM, first compound 0.003 µM",46.3%
same,"viability, T/C","second compound 0.1 µM, first compound 0.00949 µM",33.9%
same,"viability, T/C","second compound 0.1 µM, first compound 0.03 µM",25.2%
same,"viability, T/C","second compound 0.1 µM, first compound 0.0949 µM",22.6%
same,"viability, T/C","second compound 0.1 µM, first compound 0.3 µM",18.3%
same,"viability, T/C","second compound 0.316 µM, first compound 0.000949 µM",86.9%
same,"viability, T/C","second compound 0.316 µM, first compound 0.003 µM",49%
same,"viability, T/C","second compound 0.316 µM, first compound 0.00949 µM",34.2%
same,"viability, T/C","second compound 0.316 µM, first compound 0.03 µM",26.7%
same,"viability, T/C","second compound 0.316 µM, first compound 0.0949 µM",19.9%
same,"viability, T/C","second compound 0.316 µM, first compound 0.3 µM",17.1%
same,"viability, T/C","second compound 1 µM, first compound 0.000949 µM",76%
same,"viability, T/C","second compound 1 µM, first compound 0.003 µM",48.5%
same,"viability, T/C","second compound 1 µM, first compound 0.00949 µM",36%
same,"viability, T/C","second compound 1 µM, first compound 0.03 µM",25%
same,"viability, T/C","second compound 1 µM, first compound 0.0949 µM",20.4%
same,"viability, T/C","second compound 1 µM, first compound 0.3 µM",20.6%
same,"viability, T/C","second compound 3.16 µM, first compound 0.000949 µM",76.8%
same,"viability, T/C","second compound 3.16 µM, first compound 0.003 µM",36.9%
same,"viability, T/C","second compound 3.16 µM, first compound 0.00949 µM",33.3%
same,"viability, T/C","second compound 3.16 µM, first compound 0.03 µM",25.1%
same,"viability, T/C","second compound 3.16 µM, first compound 0.0949 µM",17.8%
same,"viability, T/C","second compound 3.16 µM, first compound 0.3 µM",18.8%
same,"viability, T/C","second compound 10 µM, first compound 0.000949 µM",77.4%
same,"viability, T/C","second compound 10 µM, first compound 0.003 µM",46.4%
same,"viability, T/C","second compound 10 µM, first compound 0.00949 µM",38%
same,"viability, T/C","second compound 10 µM, first compound 0.03 µM",28%
same,"viability, T/C","second compound 10 µM, first compound 0.0949 µM",23.3%
same,"viability, T/C","second compound 10 µM, first compound 0.3 µM",18.5%
NS(=O)(=O)OCC1CC(n2ccc3c(NC4CCc5ccccc54)ncnc32)CC1O (stereo not given),"viability, T/C",compound 0.00949 µM,97.8% and 103%
same,"viability, T/C",compound 0.03 µM,81% and 96.5%
same,"viability, T/C",compound 0.0949 µM,81.1% and 100%
same,"viability, T/C",compound 0.3 µM,63.5% and 87.5%
same,"viability, T/C",compound 0.949 µM,25.4% and 33.6%
same,"viability, T/C",compound 3 µM,9.22% and 9.95%
same,pIC50,curve of compound,6.36 and 6.18
